Reference: patent publication US20220023386A1, “METHOD FOR THE TREATMENT OR PREVENTION OF OSTEOARTHRITIS” (Chondropeptix B.V., priority 2016, published 2022)

What was measured:
Test in all cases: Expression of OA chondrocyte phenotype marker genes by RT-qPCR after peptide exposure
Type in all cases: cell-based, human
[1] = system: OA articular chondrocytes; design: key: [+] denotes a significantly increased expression of chondrogenic marker BAPX1/NKX3.2 or a decreased expression of OA chondrocyte phenotypic markers ALP, MMP13, ADAMTS5, COX2, COL10A and RUNX2 in OA articular chondrocytes, in comparison to untreated OA articular chondrocytes.; [−] denotes the absence of a significant effort or a significantly decreased expression of chondrogenic marker BAPX1/NKX3.2 or an increased expression of OA chondrocyte phenotypic markers ALP, MMP13, ADAMTS5, COX2, COL10A and RUNX2 in OA articular chondrocytes, in comparison to untreated OA articular chondrocytes; details: Table 2 (FIGS. 2-8), peptide 10 nM, 24 hours, vs untreated OA articular chondrocytes
Protocol: The action of 20-mer peptides (10 nM) of SEQ ID NO: 2-15 (peptides with 1 amino acids intervals (19 amino acid overlap)) and SEQ ID NO:49 on the expression of the indicated genes was determined on a validated pool of passage 2 OA human articular chondrocytes (n=18) and compared to full-length recombinant BMP-7 (1 nM). Samples were harvested after 24 hours and analyzed for indicated genes by RT-qPCR (corrected for 28S rRNA expression and relative to control conditions (no peptide exposure)). In the graphs, numbers on the x-axis represent individual peptides according to their SEQ ID NO:, error bars represent mean±SEM, statistical differences were calculated (one-way ANOVA with bonferroni correction) to control condition. *=p<0.05 lower than control condition for COL10A1, ALP, RUNX2, COX-2, MMP13 and ADAMTS5 and higher than control condition for BAPX1/NKX3.2. Random peptide is a peptide according to SEQ ID NO: 49 with amino acid sequence […].

[2] = system: OA articular chondrocytes; design: key: [+] denotes a significantly increased expression of chondrogenic marker BAPX1/NKX3.2 or a decreased expression of OA chondrocyte phenotypic markers ALP, MMP13, ADAMTS5, COX2, COL10A and RUNX2 in OA articular chondrocytes, in comparison to untreated OA articular chondrocytes.; [−] denotes the absence of a significant effort or a significantly decreased expression of chondrogenic marker BAPX1/NKX3.2 or an increased expression of OA chondrocyte phenotypic markers ALP, MMP13, ADAMTS5, COX2, COL10A and RUNX2 in OA articular chondrocytes, in comparison to untreated OA articular chondrocytes; details: vs untreated OA articular chondrocytes
[3] = system: OA articular chondrocytes; design: key to ADAMTS5 expression: [+] denotes a significantly increased expression of chondrogenic marker BAPX1/NKX3.2 or a decreased expression of OA chondrocyte phenotypic markers ALP, MMP13, ADAMTS5, COX2, COL10A and RUNX2 in OA articular chondrocytes, in comparison to untreated OA articular chondrocytes.; [−] denotes the absence of a significant effort or a significantly decreased expression of chondrogenic marker BAPX1/NKX3.2 or an increased expression of OA chondrocyte phenotypic markers ALP, MMP13, ADAMTS5, COX2, COL10A and RUNX2 in OA articular chondrocytes, in comparison to untreated OA articular chondrocytes; details: for ADAMTS5 expression: Table 3, N- and C-terminally truncated peptides, vs untreated OA articular chondrocytes; for suppression of the OA chondrocyte phenotype: independent of the tested concentration (1000, 100, 10 and 1 nM were tested)
[4] = Table 2 (FIGS. 2-8), peptide 10 nM, 24 hours
[5] = Table 3, N- and C-terminally truncated peptides

Substance	ADAMTS5 expression [1]	ALP expression [1]	BAPX1/NKX3.2 expression [1]	COL10A expression [1]	COX-2 expression [1]	RUNX2 expression [1]	MMP13 expression [2, 4]	suppression of the OA chondrocyte phenotype [3]	further results
2 (WIIAPEGYAAYYSEGESAFP; homo sapiens) [compound 2]	−	−	−	−	+	−	−		
3 (IIAPEGYAAYYSEGESAFPL; homo sapiens) [compound 3]	−	−	−	−	+	−	−		
4 (IAPEGYAAYYSEGESAFPLN; homo sapiens) [compound 4]	−	−	−	−	+	−	−		
5 (APEGYAAYYSEGESAFPLNS; homo sapiens) [compound 5]	+	+	+	+	+	+	−		
6 (PEGYAAYYSEGESAFPLNSY; homo sapiens) [compound 6]	+	+	+	+	+	+	−		
7 (EGYAAYYSEGESAFPLNSYM; homo sapiens) [compound 7]	+	+	+	+	+	+			
8 (GYAAYYSEGESAFPLNSYMN; homo sapiens) [compound 8]	+	+	+	+	+	+	+		
9 (YAAYYSEGESAFPLNSYMNA; homo sapiens) [compound 9]	+	+	+	+	+	+	+		
10 (AAYYSEGESAFPLNSYMNAT; homo sapiens) [compound 10]	+	+	+	+	+	+	+		
11 (AYYSEGESAFPLNSYMNATN; homo sapiens) [compound 11]	+	+	+	+	+	+	+		
12 (YYSEGESAFPLNSYMNATNH; homo sapiens) [compound 12]	+	+	+	+	+	+	+		
13 (YSEGESAFPLNSYMNATNHA; homo sapiens) [compound 13]	+	+	+	+	+	+	+		
14 (SEGESAFPLNSYMNATNHAI; homo sapiens) [compound 14]	−	−	−	−	−	+	−		
15 (EGESAFPLNSYMNATNHAIV; homo sapiens) [compound 15]	−	−	−	−	−	+	−		
17 (APEGYAAYYSEGESAFPLNS; homo sapiens) [compound 17]									ADAMTS5 expression [3]: +; ALP expression [2, 5]: +; BAPX1/NKX3.2 expression [2, 5]: +; COL10A expression [2, 5]: +; COX-2 expression [2, 5]: +; MMP13 expression [2, 5]: −; RUNX2 expression [2, 5]: +
18 (PEGYAAYYSEGESAFPLNS; homo sapiens) [compound 18]									ADAMTS5 expression [3]: +; ALP expression [2, 5]: +; BAPX1/NKX3.2 expression [2, 5]: +; COL10A expression [2, 5]: +; COX-2 expression [2, 5]: +; MMP13 expression [2, 5]: −; RUNX2 expression [2, 5]: +

Substance	ADAMTS5 expression [1]	ALP expression [1]	BAPX1/NKX3.2 expression [1]	COL10A expression [1]	COX-2 expression [1]	RUNX2 expression [1]	MMP13 expression [2, 4]	suppression of the OA chondrocyte phenotype [3]	further results
19 (EGYAAYYSEGESAFPLNS; homo sapiens) [compound 19]									ADAMTS5 expression [3]: +; ALP expression [2, 5]: +; BAPX1/NKX3.2 expression [2, 5]: +; COL10A expression [2, 5]: +; COX-2 expression [2, 5]: +; MMP13 expression [2, 5]: +; RUNX2 expression [2, 5]: +
20 (GYAAYYSEGESAFPLNS; homo sapiens) [compound 20]									ADAMTS5 expression [3]: +; ALP expression [2, 5]: +; BAPX1/NKX3.2 expression [2, 5]: +; COL10A expression [2, 5]: +; COX-2 expression [2, 5]: +; MMP13 expression [2, 5]: +; RUNX2 expression [2, 5]: +
21 (YAAYYSEGESAFPLNS; homo sapiens) [compound 21]									ADAMTS5 expression [3]: +; ALP expression [2, 5]: +; BAPX1/NKX3.2 expression [2, 5]: +; COL10A expression [2, 5]: +; COX-2 expression [2, 5]: +; MMP13 expression [2, 5]: +; RUNX2 expression [2, 5]: +
AAYYSEGESAFPLNSYMNAT (homo sapiens) [SEQ ID NO: 10]								efficiently suppressed	
APEGYAAYYSEGESAFPLNS (homo sapiens) [SEQ ID NO: 5]								efficiently suppressed	
AYYSEGESAFPLNSYMNATN (homo sapiens) [SEQ ID NO: 11]								efficiently suppressed	
EGESAFPLNSYMNATNHAIV (homo sapiens) [SEQ ID NO: 15]								efficiently suppressed	
EGYAAYYSEGESAFPLNSYM (homo sapiens) [SEQ ID NO: 7]								efficiently suppressed	
IAPEGYAAYYSEGESAFPLN (homo sapiens) [SEQ ID NO: 4]								efficiently suppressed	
IIAPEGYAAYYSEGESAFPL (homo sapiens) [SEQ ID NO: 3]								efficiently suppressed	
PEGYAAYYSEGESAFPLNSY (homo sapiens) [SEQ ID NO: 6]								efficiently suppressed	
SEGESAFPLNSYMNATNHAI (homo sapiens) [SEQ ID NO: 14]								efficiently suppressed	
WIIAPEGYAAYYSEGESAFP (homo sapiens) [SEQ ID NO: 2]								efficiently suppressed	
YAAYYSEGESAFPLNSYMNA (homo sapiens) [SEQ ID NO: 9]								efficiently suppressed	
YSEGESAFPLNSYMNATNHA (homo sapiens) [SEQ ID NO: 13]								efficiently suppressed	
YYSEGESAFPLNSYMNATNH (homo sapiens) [SEQ ID NO: 12]								efficiently suppressed	
